Data as given in US4385058A, “Pyrimidone derivatives” (Smith Kline & French Laboratories Limited, priority 1980, dated 1983).

Tested on: histamine H2 -receptors
Experiment: Inhibition of histamine-stimulated acid secretion in the Heidenhain pouch dog
Assay type: in vivo
Settings: intravenous administration; dose levels adjusted to produce similar peak responses
Source text: Heidenhain pouch dogs can be prepared and used as described in European Specification No. 15138.

Compound: Cc1ccc(Cc2cnc(NCCSCc3cc(CN(C)C)ccn3)[nH]c2=O)cn1 [Example 1, 2-[2-(4-dimethylaminomethyl-2-pyridylmethylthio)ethylamino]-5-(6-methyl-3-pyridylmethyl)-4-pyrimidone]
- duration of activity versus cimetidine: longer duration of activity than cimetidine
